Data taken from ChEMBL document CHEMBL1201862, “PubChem BioAssay data set” (2004).
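Growth conditions: 96-well plates. Treatment: test compound, 48 hours, 5 concentrations. Analysis: linear interpolation between bracketing concentrations; unreached endpoints set to highest concentration. Here, GI50 denotes the concentration required for 50% inhibition of growth.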 Calls of active or inactive are those of the source. Rule as the data show it: active = GI50 up to about 1.1 µM and inactive = higher. Where a SMILES comes first, the peptide text is derived from it. [ ]: non-standard residue; d: D form. The star is where a group is joined. ξ: configuration not given here. ξD = NC(CC(=O)O)C(=O)O; Boc = CC(C)(C)OC(=O)*; Aib = CC(C)(N)C(=O)O; OBn = c1ccc(CO*)cc1

Key:
Assay in all cases: NCI anticancer screen, dose series, 48 h
SK-MEL-5 = test system: SK-MEL-5
SNB-75 = test system: SNB-75
MCF7 = test system: MCF7
SF-268 = test system: SF-268
SF-539 = test system: SF-539
UACC-257 = test system: UACC-257
NCI-H226 = test system: NCI-H226
Malme-3M = test system: Malme-3M
A498 = test system: A498
HCT-15 = test system: HCT-15
DU-145 = test system: DU-145
ACHN = test system: ACHN
MDA-MB-231 = test system: MDA-MB-231
KM12 = test system: KM12
SK-MEL-28 = test system: SK-MEL-28
NCI/ADR-RES = test system: NCI/ADR-RES
MOLT-4 = test system: MOLT-4
HT-29 = test system: HT-29
HCC 2998 = test system: HCC 2998

SMILES	GI50 (SK-MEL-5)	GI50 (SNB-75)	GI50 (MCF7)	GI50 (SF-268)	GI50 (SF-539)	GI50 (UACC-257)	GI50 (NCI-H226)	GI50 (Malme-3M)	GI50 (A498)	GI50 (HCT-15) [µM]	GI50 (DU-145)	GI50 (ACHN)	GI50 (MDA-MB-231)	GI50 (KM12)	GI50 (SK-MEL-28)	GI50 (NCI/ADR-RES)	GI50 (MOLT-4)	GI50 (HT-29)	GI50 (HCC 2998)
OC1(c2ccc3ccccc3c2)c2c(c3ccccc3c3ccccc23)C2=NCCN21 (centres undefined)	17 µM (inactive)	3.11 µM (inactive)	3.48 µM (inactive)	5.79 µM (inactive)	5.45 µM (inactive)	18.5 µM (inactive)	34.5 µM (inactive)	10.4 µM (inactive)	12.1 µM (inactive)	4.63	16.9 µM (inactive)	8.22 µM (inactive)	10.1 µM (inactive)	2.32 µM (inactive)	2.12 µM (inactive)	2.13 µM (inactive)	4.81 µM (inactive)	2.8 µM (inactive)	–
CC(C)c1ccc(/C(C(=O)O)=C(\O)C(=O)O)cc1	> 100 µM (inactive)	> 100 µM (inactive)	> 100 µM (inactive)	> 100 µM (inactive)	> 100 µM (inactive)	> 100 µM (inactive)	> 100 µM (inactive)	> 100 µM (inactive)	> 100 µM (inactive)	> 100	> 100 µM (inactive)	> 100 µM (inactive)	> 100 µM (inactive)	> 100 µM (inactive)	> 100 µM (inactive)	> 100 µM (inactive)	> 100 µM (inactive)	> 100 µM (inactive)	–
CC(C)(C)OC(=O)N1CCC(C(=O)O)CC1	> 100 µM (inactive)	> 100 µM (inactive)	> 100 µM (inactive)	> 100 µM (inactive)	> 100 µM (inactive)	> 100 µM (inactive)	–	> 100 µM (inactive)	> 100 µM (inactive)	> 100	> 100 µM (inactive)	> 100 µM (inactive)	> 100 µM (inactive)	> 100 µM (inactive)	> 100 µM (inactive)	> 100 µM (inactive)	> 100 µM (inactive)	> 100 µM (inactive)	> 100 µM (inactive)
O=[N+]([O-])c1ccc(/C=N/n2c(S)nnc2CCc2nnc(S)n2/N=C/c2ccc([N+](=O)[O-])o2)o1	17.3 µM (inactive)	–	18.1 µM (inactive)	22.3 µM (inactive)	41.5 µM (inactive)	22.4 µM (inactive)	> 100 µM (inactive)	–	> 100 µM (inactive)	15.9	16.2 µM (inactive)	23.1 µM (inactive)	24.7 µM (inactive)	22.8 µM (inactive)	16.6 µM (inactive)	23.8 µM (inactive)	24.8 µM (inactive)	29.3 µM (inactive)	17.6 µM (inactive)
COc1cc(C(=O)N(C(=O)N2CCCCC2)c2ccccc2)cc(OC)c1OC	> 100 µM (inactive)	> 100 µM (inactive)	> 100 µM (inactive)	–	> 100 µM (inactive)	> 100 µM (inactive)	> 100 µM (inactive)	–	> 100 µM (inactive)	> 100	> 100 µM (inactive)	> 100 µM (inactive)	> 100 µM (inactive)	> 100 µM (inactive)	> 100 µM (inactive)	> 100 µM (inactive)	> 100 µM (inactive)	–	> 100 µM (inactive)
O=C(O)/C=C\C(=O)Nn1c(Cc2ccc(Cl)cc2)n[nH]c1=O	> 100 µM (inactive)	–	> 100 µM (inactive)	> 100 µM (inactive)	> 100 µM (inactive)	> 100 µM (inactive)	> 100 µM (inactive)	> 100 µM (inactive)	> 100 µM (inactive)	> 100	> 100 µM (inactive)	–	> 100 µM (inactive)	–	–	> 100 µM (inactive)	> 100 µM (inactive)	> 100 µM (inactive)	> 100 µM (inactive)
c1ccc(N/N=N/c2ccc(-c3nc4ccccc4o3)cc2)nc1	16.2 µM (inactive)	20.4 µM (inactive)	35.6 µM (inactive)	83.6 µM (inactive)	55.3 µM (inactive)	29.7 µM (inactive)	–	> 100 µM (inactive)	46.3 µM (inactive)	33.7	43.6 µM (inactive)	52.2 µM (inactive)	36.6 µM (inactive)	37.8 µM (inactive)	61.5 µM (inactive)	35.4 µM (inactive)	21.6 µM (inactive)	42.8 µM (inactive)	20 µM (inactive)
COc1ccc(-n2cnc3c(NC(C)(C)C(=O)O)ncnc32)cc1	> 100 µM (inactive)	> 100 µM (inactive)	> 100 µM (inactive)	> 100 µM (inactive)	–	> 100 µM (inactive)	> 100 µM (inactive)	–	> 100 µM (inactive)	> 100	> 100 µM (inactive)	> 100 µM (inactive)	> 100 µM (inactive)	> 100 µM (inactive)	> 100 µM (inactive)	> 100 µM (inactive)	> 100 µM (inactive)	> 100 µM (inactive)	> 100 µM (inactive)
C[C@H](CCC(=O)O[C@@H]1CC[C@@]2(C)C(CC[C@H]3[C@@H]4CC[C@H]([C@H](C)CCc5nc6ccccc6[nH]5)[C@@]4(C)CC[C@@H]32)C1)[C@H]1CC[C@H]2[C@@H]3CCC4C[C@H](O)CC[C@]4(C)[C@H]3CC[C@]12C (some centres undefined)	> 100 µM (inactive)	3.97 µM (inactive)	6.34 µM (inactive)	5.38 µM (inactive)	> 100 µM (inactive)	> 100 µM (inactive)	> 100 µM (inactive)	–	> 87.5 µM (inactive)	> 80.2	> 100 µM (inactive)	4.13 µM (inactive)	> 67.9 µM (inactive)	> 100 µM (inactive)	> 100 µM (inactive)	> 100 µM (inactive)	> 100 µM (inactive)	> 57.5 µM (inactive)	2.54 µM (inactive)
CCOC(=O)c1ccc(N(C)Cc2cnc3nc(N)nc(N)c3n2)cc1	6.1 µM (inactive)	16.3 µM (inactive)	12.6 µM (inactive)	9.51 µM (inactive)	8.13 µM (inactive)	9.77 µM (inactive)	20.1 µM (inactive)	16.6 µM (inactive)	13.1 µM (inactive)	4.85	15.8 µM (inactive)	5.05 µM (inactive)	21.7 µM (inactive)	15.8 µM (inactive)	17.9 µM (inactive)	7.8 µM (inactive)	7.91 µM (inactive)	7.98 µM (inactive)	–
c1ccc(-c2cc(-c3cccs3)c(-c3cccs3)o2)cc1	> 100 µM (inactive)	> 100 µM (inactive)	32.2 µM (inactive)	> 100 µM (inactive)	> 100 µM (inactive)	> 100 µM (inactive)	> 100 µM (inactive)	–	> 100 µM (inactive)	> 100	> 100 µM (inactive)	> 100 µM (inactive)	> 100 µM (inactive)	48.4 µM (inactive)	> 100 µM (inactive)	> 100 µM (inactive)	> 100 µM (inactive)	> 100 µM (inactive)	> 100 µM (inactive)
CC1(C)CCCCCC(O)C(O)CCC(C)(C)C1=O (centres undefined)	> 100 µM (inactive)	> 100 µM (inactive)	> 100 µM (inactive)	> 100 µM (inactive)	> 100 µM (inactive)	> 100 µM (inactive)	> 100 µM (inactive)	> 100 µM (inactive)	> 100 µM (inactive)	> 100	> 100 µM (inactive)	> 100 µM (inactive)	> 100 µM (inactive)	> 100 µM (inactive)	> 100 µM (inactive)	> 100 µM (inactive)	> 100 µM (inactive)	> 100 µM (inactive)	–
N#Cc1[nH]c(=O)n(-c2ccc(Cl)cc2)c1N	> 10 µM (inactive)	–	> 10 µM (inactive)	> 10 µM (inactive)	> 10 µM (inactive)	> 10 µM (inactive)	> 10 µM (inactive)	8.79 µM (inactive)	> 10 µM (inactive)	> 10	> 10 µM (inactive)	> 10 µM (inactive)	> 10 µM (inactive)	> 10 µM (inactive)	> 10 µM (inactive)	> 10 µM (inactive)	> 10 µM (inactive)	> 10 µM (inactive)	> 10 µM (inactive)
CCCC(=O)N/S(=N/S(=O)(=O)c1ccc(Cl)cc1)C(Cl)(Cl)Cl (centres undefined)	> 100 µM (inactive)	–	> 100 µM (inactive)	> 100 µM (inactive)	> 100 µM (inactive)	–	> 100 µM (inactive)	> 100 µM (inactive)	> 100 µM (inactive)	> 100	> 100 µM (inactive)	> 100 µM (inactive)	> 100 µM (inactive)	> 100 µM (inactive)	> 100 µM (inactive)	> 100 µM (inactive)	> 100 µM (inactive)	> 100 µM (inactive)	> 100 µM (inactive)
COc1ccc(C(=O)c2sc(Nc3ccccc3)nc2N)cc1	> 100 µM (inactive)	–	4.9 µM (inactive)	28.4 µM (inactive)	14.3 µM (inactive)	> 100 µM (inactive)	> 100 µM (inactive)	> 100 µM (inactive)	> 100 µM (inactive)	3.84	> 68.9 µM (inactive)	> 100 µM (inactive)	> 75.7 µM (inactive)	–	> 100 µM (inactive)	> 100 µM (inactive)	2.16 µM (inactive)	> 100 µM (inactive)	> 100 µM (inactive)
CC(C)(C)OC(=O)NC(CC(=O)OCc1ccccc1)C(=O)NC(C)(C)C(N)=O (centres undefined) (Boc-[ξD](OBn)-[Aib]-NH2)	> 100 µM (inactive)	> 100 µM (inactive)	> 100 µM (inactive)	> 100 µM (inactive)	> 100 µM (inactive)	> 100 µM (inactive)	> 100 µM (inactive)	> 100 µM (inactive)	> 100 µM (inactive)	> 100	> 100 µM (inactive)	> 100 µM (inactive)	> 100 µM (inactive)	> 100 µM (inactive)	> 100 µM (inactive)	> 100 µM (inactive)	> 100 µM (inactive)	> 100 µM (inactive)	–
